# Legend:
# [1] = type: in vitro ADME
# [2] = Pharmacokinetics in male CD-1 mice (i.v. and p.o.); type: in vivo
# Description: The oral bioavailability and serum half lives of PPARδ ligands were compared in mice. The pharmacokinetics of PPARδ ligands delivered orally (10 mg/kg p.o.) and intravenously (3 mg·kg i.v.) were determined by mass spectrometry.
# In this example, the PK profile of several PPARδ agonists disclosed herein in male CD-1 mice or Wistar rats was determined. Similar methods can be used to analyze other compounds provided herein.
# (quantity sufficient ie made up to a final volume of 100% with water). All compounds were separately administered to CD-1 mice at 3 mg/kg iv or 10 mg/kg po.
# (§1) The concentration of the compound in plasma was determined, as illustrated in FIGS. 9A-9E.
# [3] = Pharmacokinetics in male Wistar rats (i.v. and p.o.); type: in vivo
# Description: In this example, the PK profile of several PPARδ agonists disclosed herein in male CD-1 mice or Wistar rats was determined. Similar methods can be used to analyze other compounds provided herein. […]
# as §1
# [4] = Solubility (kinetic, thermodynamic); type: physicochemical
# [5] = test system: C57BL6J mice, freeze burn injury to the TA muscle; assay: Acute pharmacological activation of PPARδ with oral GW501516, freeze burn injury to the TA muscle; type: in vivo
# Description: A stainless steel 1 g weight (Mettler-Toledo) equilibrated to the temperature of dry ice was placed directly on the exposed TA for 10 seconds. Following the thermal injury, incision was closed using VetBond (3M). All injury procedures were performed on the left leg, and the right leg was used as control.
# Sterile 1% w/v Evans Blue dye in PBS was intraperitoneally injected at 1% volume relative to the body mass of an animal. 7 hours after the injection, injured TA muscles were harvested and snap-frozen by isopentane quenching in liquid nitrogen. Frozen sections were cut in 10 μm thickness, fixed in ice-cold acetone, dipped in xylene and mounted with DPX. Proportion of the stained area over the total area was measured using ImageJ software.
# 50 mg/kg body weight of BrdU (Sigma) was injected intraperitoneally as solution of 10 mg/mL BrdU in saline. TA muscles were harvested at 7 days after injury and processed for paraffin sections as described above. BrdU incorporation was visualized using the BrdU Labeling and Detection Kit I (Roche) and BrdU+ nuclei were counted and represented as a proportion of total nuclei in a field.
# Whole or partial tissues were homogenized by Polytron probe homogenizer in Trizol reagent (Invitrogen). Total RNA was extracted from the homogenates according to the manufacturer's protocol. 1 μg of DNase-treated total RNA was reverse transcribed using Superscript II Reverse Transcriptase (Invitrogen) according to the manufacturer's instructions. cDNAs were diluted 1/40 with ddH2O and used as templates in RT-QPCR reactions with SYBRGreenER qPCR SuperMix detection system (Invitrogen). Samples were prepared in technical triplicates and relative mRNA levels were calculated by using the standard curve methodology and normalized against GAPDH mRNA levels in the same samples.
# FGF1a promoter = assay: Luciferase reporter assay of the FGF1a promoter co-transfected with PPARδ; type: cell-based; details: with ligand
# Excerpt: Increased vasculature is one of the hallmarks of oxidative myofibers, which facilitates introduction of immune cells and also supports increased number of satellite cells.
# [6] = male, mouse, iv, CD-1 mice, 3 mg/Kg i.v., plasma
# [7] = male, mouse, po, CD-1 mice, 10 mg/Kg p.o., plasma
# [8] = rat, iv, male Wistar rats, 3 mg/Kg i.v., plasma
# [9] = rat, po, male Wistar rats, 10 mg/Kg p.o., plasma
structure (smiles),measurement,setting,value
Cc1cc(SCc2sc(-c3ccc(C(F)(F)F)cc3)nc2C)ccc1OCC(=O)O [GW501516],"% Parent remained at 15 min, MLM",[1],93/76%
same,"% Parent remained at 60 min, MLM",[1],93/76%
same,Kel,"[2]; CD-1 mice, 3 mg/Kg i.v., plasma",0.11 h⁻¹
same,F,"[2]; CD-1 mice, 10 mg/Kg p.o. vs 3 mg/Kg i.v.",82.1%
same,clearance,"[2]; male, CD-1, mouse, plasma, iv, 3 mg/kg",4.42 mL/min/kg
same,Vd,"[2]; male, CD-1, mouse, plasma, iv, 3 mg/kg, CD-1 mice, 3 mg/Kg i.v., plasma, read-out: Vss",1.71 L/kg
same,Vd,"[2]; male, CD-1, mouse, plasma, iv, 3 mg/kg, CD-1 mice, 3 mg/Kg i.v., plasma, read-out: Vz",2.46 L/kg
same,half-life,"[2]; male, CD-1, mouse, plasma, iv, 3 mg/kg, read-out: Beta T1/2 (converted)",6.44 h
same,half-life,"[2]; male, CD-1, mouse, plasma, po, 10 mg/kg, read-out: T1/2 (converted)",5.98 h
same,AUC(0-inf),[2]; [6],11300 ng·h/mL
same,C0,[2]; [6],5560 ng/mL
same,MRT,[2]; [6],4.96 h
same,AUC(0-inf),[2]; [7],31000 ng·h/mL
same,Cmax,[2]; [7],3290 ng/mL
same,Tmax,[2]; [7],2 h
same,Kel,"[3]; male Wistar rats, 3 mg/Kg i.v., plasma",0.09 h⁻¹
same,F,"[3]; male Wistar rats, 10 mg/Kg p.o. vs 3 mg/Kg i.v.",~100%
same,clearance,"[3]; male, Wistar, rat, plasma, iv, 3 mg/kg",5.1 mL/min/kg
same,Vd,"[3]; male, Wistar, rat, plasma, iv, 3 mg/kg, male Wistar rats, 3 mg/Kg i.v., plasma, read-out: Vss",1.99 L/kg
same,Vd,"[3]; male, Wistar, rat, plasma, iv, 3 mg/kg, male Wistar rats, 3 mg/Kg i.v., plasma, read-out: Vz",3.58 L/kg
same,half-life,"[3]; male, Wistar, rat, plasma, iv, 3 mg/kg, read-out: Beta T1/2 (converted)",8.07 h
same,half-life,"[3]; male, Wistar, rat, plasma, po, 10 mg/kg, read-out: T1/2 (converted)",6.21 h
same,AUC(0-inf),[3]; [8],9960 ng·h/mL
same,C0,[3]; [8],5280 ng/mL
same,MRT,[3]; [8],4.3 h
same,AUC(0-inf),[3]; [9],35100 ng·h/mL
same,Cmax,[3]; [9],6920 ng/mL
same,Tmax,[3]; [9],2 h
same,solubility kinetic,[4]; kinetic from dmso stock,195 µM
same,solubility thermodynamic,[4]; thermodynamic from solid,246 µM
same,"Evans Blue dye uptake, stained proportion of muscle cross sectional area (CSA)","[5]; 5 mg/kg orally, 4 days prior to and 5 days after freeze burn injury, 5 days after injury (vehicle 7.6%)",4.9%
same,initial inflammatory responses,"[5]; 12 hours after injury, with and without ligand",similar
same,TNFα and macrophage marker F4/80 expression by QPCR,"[5]; 3 days post injury, TA muscle",significant reduction
same,reduction in damaged muscle fibers,"[5]; 5 days after the injury, vs vehicle",34.7%
same,Notch1 and Hes1 expression by QPCR,[5]; 9 day treatment,increases
same,"PPARδ target genes (PDK4, CPT1b, catalase) in the TA muscle by QPCR","[5]; 9 day treatment, 5 mg/kg orally",Up-regulation
same,number of quiescent satellite cells,[5]; 9 days or 4 weeks of ligand treatment,not significantly affected
same,proliferative cell number (BrdU),[5]; BrdU injection at 48 hours after the injury,marked increase
same,"FGF1a promoter luciferase reporter, PPRE-dependent",FGF1a promoter,activation

# Source: patent US10035819B2, “PPAR agonists and methods of use thereof” (The Salk Institute for Biological Studies, priority 2014, dated 2018)
